Results: US6451571B1, “Thymidine kinase mutants” (University of Washington, priority 1994, dated 2002)

Key:
[1] = Time course analysis of thymidine phosphorylation by cell-free translation products; type: biochemical; settings: for TK activity (thymidine phosphorylation) in time course compared to wild-type TK: cell-free translation products, 30° C., adjusted to protein synthesis levels; for classification on the basis of TK activities: high-activity or low-activity subset
Experimental: The transcripts described above were then used in a rabbit reticulocyte lysate cell-free translation system to synthesize active enzymes. Cell-free translation was according to Promega using nuclease-treated rabbit reticulocyte lysates.
For the high-activity mutant enzymes, unlabeled translation products were diluted 1/9 and incubated for 0, 5, 10, 20, or 30 minutes at 30° C. The TK activity results (counts per minute) were adjusted to reflect equivalent protein synthesis levels using the corresponding TCA-precipitable counts (^35S cpm).
The low-activity mutants were diluted 1/5, and the rate of phosphorylation as a function of time was also determined.

[2] = type: biochemical; settings: for thermal stability compared to HSVTKII after 42° C. preincubation: cell-free translation products
Experimental: To substantiate this observation, cell-free translation products were incubated at 42° C. for increasing times prior to being assayed for enzyme activity. Briefly, cell free translation (“CFT”) products of each high-activity mutant, -RNA, and HSVTKII samples were diluted 1/9 and incubated for 0, 5, 10, and 20 minutes at 42° C. The preincubated samples were then assayed for 5 minutes (P155A/F161V and F161I) or 20 minutes (-RNA, HSVTKII, F161C, and D162E). The percent of activity remaining was determined with the untreated samples set at 100%. […] Because F161C lost greater than 90% of enzyme activity within the first 20 minutes at 42° C., shorter incubation periods at 42° C. were performed (0, 5, 10, and 20 minutes).
Low-activity mutant CFT products were diluted 1/5 and incubated for 0, 20, 40, or 60 minutes at 42° C. The preincubated samples were then assayed in triplicate for the thymidine phosphorylation for 60 minutes. The percent of activity remaining was determined using the untreated (time 0) sample as 100%.

E. coli KY895 = experiment: Secondary screen: colony formation on acyclovir, AZT, LB and TK selection plates; type: cell-based; parameters: key to ACV / AZT / LB / 37° C. / 42° C.: ++: the same number of colonies were observed as compared to control plates; +: fewer (<20% those observed with pMCC) and generally smaller (˜50% smaller diameter) colonies were observed as compared to control plates; −: no colonies were observed; settings: for utilization of nucleoside analogues over thymidine in comparison to the wild-type: ACV and AZT plates; for AZT: colonies on AZT plates: 1 μg/mL thymidine + 0.05 μg/mL AZT; for AZT / ACV: 37° C.; for LB: colonies on LB+carb50 plates; for 37° C.: colonies on TK selection plates at 37° C.; for 42° C.: colonies on TK selection plates at 42° C.; for ACV: colonies on acyclovir plates: 1 μg/mL thymidine + 1 μg/mL acyclovir
Experimental: The ability of pMCC (KY895) and 35 log-phase mutant pMDC (KY895) cultures to produce colonies on acyclovir (“ACV”) or AZT plates was determined in a secondary screen as described below. Briefly, log-phase cultures of TK positive clones were serially diluted in 0.9% NaCl and spread onto acyclovir or AZT plates (TK selection plates except 1 μ/mL thymidine+1 μg/mL acyclovir or 0.05 μg/mL AZT). Mutant cultures were also spread onto duplicate TK selection and LB+carb^50 plates. One set of TK selection plates and LB+carb^50 plates were incubated at 42° C. All other plates were incubated at 37° C. After 16-24 hours the plates were scored.
Briefly, only mutants that gave results which differed from those observed with the wild-type pMCC (KY895) are shown.

[3] = Substrate specificity assay, deoxycytidine; type: biochemical; settings: cell-free translation products, 2 hours at 30° C.
Experimental: (§1) Three of the mutants (P155A/F161V, F161I and F161C) were assayed in triplicate for the relative levels of phosphorylation using thymidine, deoxycytidine, ACV, GCV, or AZT as substrates. Briefly, forty-eight […] of each tritiated substrate was used in each assay reaction. Translation products were diluted for each nucleoside assay as follows (translation/H2O). 1/100, thymidine; 2/3, deoxycytidine, GCV, and AZT; 4/1, ACV. Each set of assays was incubated for 2 hours at 30° C. and the amount of phosphorylated product determined.

[4] = Substrate specificity assay, ACV; type: biochemical; settings: cell-free translation products, 2 hours at 30° C.
Experimental: as §1

[5] = Substrate specificity assay, thymidine; type: biochemical; settings: cell-free translation products, 2 hours at 30° C.
Experimental: as §1

Substance	TK activity (thymidine phosphorylation) in time course compared to wild-type TK [1]	classification on the basis of TK activities [1]	thermal stability compared to HSVTKII after 42° C. preincubation [2]	utilization of nucleoside analogues over thymidine in comparison to the wild-type (E. coli KY895)	AZT (E. coli KY895)	LB (E. coli KY895)	37° C. (E. coli KY895)	42° C. (E. coli KY895)	ACV (E. coli KY895)	activity loss after only 5 minutes at 42° C. ([2]; cell-free translation product)	loss of enzyme activity within the first 20 minutes at 42° C. ([2]; cell-free translation product)	phosphorylation of deoxycytidine over the wild-type enzyme [3]	phosphorylation of ACV over HSVTKII [4]	phosphorylation of thymidine relative to HSVTKII [5]	ability to form colonies on TK selection plates at 42° C. (E. coli KY895)
D162E	no difference in activities when compared to the wild-type TK	high-activity													
D162G		low-activity	equivalent to HSVTKII												
F161C	no difference in activities when compared to the wild-type TK	high-activity	exceptionally thermolabile	preferentially utilize one or both nucleoside analogues over thymidine	−	++	++	++	+ (fewer (<20% those observed with pMCC) and generally smaller (˜50% smaller diameter) colonies were observed as compared to control plates)	~85%	greater than 90%	2.8 fold	2 fold		
F161I	statistically higher affinity for thymidine than the wild-type TK	high-activity		preferentially utilize one or both nucleoside analogues over thymidine	+ (fewer (<20% those observed with pMCC) and generally smaller (˜50% smaller diameter) colonies were observed as compared to control plates)	++	++	++	+ (fewer (<20% those observed with pMCC) and generally smaller (˜50% smaller diameter) colonies were observed as compared to control plates)			1.9 fold		2.2 fold	
F161I/R163H		low-activity	equivalent to HSVTKII		++	++	++	+ (fewer (<20% those observed with pMCC) and generally smaller (˜50% smaller diameter) colonies were observed as compared to control plates)	++						severely reduced ability to form colonies
F161L	moderate ability to phosphorylate thymidine, albeit at a much reduced rate from HSVTKII	low-activity	more thermolabile that HSVTKII		++	++	++	−	++						unable to form colonies
P155A/F161V	statistically higher affinity for thymidine than the wild-type TK	high-activity		preferentially utilize one or both nucleoside analogues over thymidine	+ (fewer (<20% those observed with pMCC) and generally smaller (˜50% smaller diameter) colonies were observed as compared to control plates)	++	++	++	++			2.8 fold	2.4 fold	2.6 fold	
R163P/H164Q		low-activity	equivalent to HSVTKII	preferentially utilize one or both nucleoside analogues over thymidine	+ (fewer (<20% those observed with pMCC) and generally smaller (˜50% smaller diameter) colonies were observed as compared to control plates)	++	++	−	+ (fewer (<20% those observed with pMCC) and generally smaller (˜50% smaller diameter) colonies were observed as compared to control plates)						unable to form colonies
